Measurements as given in a melting point compilation (Tetko et al.; mined from patent text by program, amines drawn as free bases though some values may be those of a salt).

| melting point | Structure (SMILES) |
| --- | --- |
| 138 to 143 °C | O=C(N[C@@H](CO)C(=O)N1CC(C(=O)O)C1)OCc1ccccc1 |
| 166 °C | CC12CCC(Oc3c(F)c(F)c(C(F)(F)F)c(F)c3F)=CC1=CCC1C2CCC2(C)C(c3cccnc3)=CCC12 (configuration not stated) |
| 282 to 288 °C | O=C(Nc1ccc(C(=O)N2CCc3cn[nH]c3-c3sccc32)c(Cl)c1)c1cc(Cl)ccc1F |
| 171 to 174 °C | C=CCOc1cc(=O)n(-c2ccccc2)c2ncccc12 |
| 204 °C | CN(C(=O)CN(C(=O)CNC(=O)Nc1cccc(C#N)c1)c1ccccc1)c1ccccc1 |
| 108 to 109 °C | O=C(Oc1ccc([N+](=O)[O-])cc1)OC1CCN(C(=O)Oc2ccc(Oc3ccccc3)cc2)CC1 |
| 196 to 199 °C | O=C(/C=C/c1ccc(C(F)(F)F)cc1-c1cccnc1)Nc1cnc2ccccc2c1 |
| 151 to 152 °C | Cc1c(NC(=O)c2ccc(OCc3cccc(F)c3)cc2)ccc2cc(CN3CCCC3)cnc12 |
| 170 to 176 °C | CC(=O)C(=Cc1cc(O)c(O)c([N+](=O)[O-])c1)c1ccccc1 |
| 167 to 169 °C | CCn1c(-c2ccnc3ccccc23)nc(-c2ccncc2)c1-c1ccc(Cl)cc1 |
| 123 to 125 °C | Cc1cccc(OCC(O)CN2C(=O)C3CCCN3c3ncccc32)c1C (configuration not stated) |
| 94 °C | Nc1ncccc1CNC(=O)C1Cc2ccccc2N1S(=O)(=O)c1ccc(-c2cccc(C(F)(F)F)c2)cc1 (configuration not stated) |
| 226 to 228 °C | CC1=C(C(=S)Cc2ccccc2)C(c2ccccc2)C2=C(N1)c1ccccc1C2=O (configuration not stated) |
| 104 to 107 °C | NC(=O)c1sc2nccc(N3CCCN(c4ccc5c(c4)OCCO5)CC3)c2c1N |
| 202 to 205 °C | O=C(NC(SC(=O)c1ccccc1)C(=O)N1CCCC1C(=O)O)c1ccccc1 (configuration not stated) |
| 165 to 166 °C | COc1ccc(Cn2nc(-c3ccc(SC)cc3)c(-c3ccc(F)cc3)cc2=O)cc1 |
| 110 to 112 °C | O=C(c1ccccc1)C1CNC(=S)C1 (configuration not stated) |
| 170 to 172 °C | O=C1c2ccccc2COc2cc(C=NO)ccc21 |
| 174 °C | COC(=O)C1=C(C)NC(C)=C(C(=O)OC(C)C)C1c1ccccc1[N+](=O)[O-] (configuration not stated) |

| melting point | Structure (SMILES) |
| --- | --- |
| 75 to 77 °C | CC(=O)CCc1ccc2c(c1)C(=O)c1ccccc1-2 |
| 144 to 145 °C | CN1CCC(O)c2cccc(CSc3nc4ccccc4[nH]3)c21 (configuration not stated) |
| 207 °C | CNC1(CC2CCCCC2)C(=O)N(S(=O)(=O)c2ccc([N+](=O)[O-])cc2OC)c2ccc(Cl)cc21 (configuration not stated) |
| 95 °C | COc1ccc(-c2ccc(C)n2CC[C@H]2C[C@H](O)CC(=O)O2)cc1 (relative stereo) |
| 172 to 173 °C | COc1cc(C2=C(c3cn(CCCNC(=O)C(N)CC(C)C)c4ccccc34)C(=O)NC2=O)cc(OC)c1OC (configuration not stated) |
| 138 °C | C#Cc1cnn2c(C(F)(F)F)cc(-c3ccc(C(F)(F)F)cc3)nc12 |
| 208 to 210 °C | Clc1cccc(/C=C/C2=CCN(Cc3c[nH]c4ncccc34)CC2)c1 |
| 163 to 167 °C | O=C(Nc1cc(Cl)c(N2CCCC2)c(Cl)c1)c1ccc(F)c(OCc2cccnc2)c1 |
| 78 to 80 °C | O=C(O)CSC(CCCCNS(=O)(=O)c1ccc(Cl)cc1)CCCc1cccnc1 (configuration not stated) |
| 185 to 186 °C | O=c1ccn(CC(O)CO)c(Cc2ccccc2)c1O (configuration not stated) |
| 246 °C | CC(C)n1cc(-c2nc(C(N)=O)c(N)nc2-c2ccc(Cl)cc2)ccc1=O |
| 266 to 267 °C | Cc1ccc(/C=C/c2ccc3nc(C(=O)N[C@@H](Cc4ccc(OCc5ccccc5)cc4)C(=O)O)cn3c2)cc1 |
| 148 to 149 °C | CCn1nc(-c2ccc(F)cc2)c(-c2ccncc2)c1C(=O)N(C)Cc1ccccc1 |
| 123 to 124 °C | O=C(c1ccccc1)C1CCN(Sc2ccncc2)CC1 |
| 193 to 194 °C | O=[N+]([O-])c1ccc(CSC(=S)N2Cc3[nH]c4ccccc4c3CC2CO)cc1 (configuration not stated) |
| 164 to 181 °C | NC1=NC(c2ccc(O)cc2)(c2cccc(-c3cccnc3F)c2)C2=NCCCN12 (configuration not stated) |
| 129 to 131 °C | CCCC(CCC)c1ccc(CN(C)c2ccc(-c3coc(CN(CC(=O)O)Cc4ccccc4)n3)cc2)cc1 |
| > 300 °C | O=C(O)c1ccc(-c2ncc(-c3ccc(Cl)cc3)s2)cc1 |
| 117 to 119 °C | CN(C)C(=O)N1CCC(c2nn(-c3ccc(C(F)(F)F)cc3)c3ccccc23)CC1 |

| melting point | Structure (SMILES) |
| --- | --- |
| 238 to 244 °C | CC(=O)NCCNC(=O)Nc1ccc(-c2c[nH]c(=O)cn2)cc1 |
| 118 to 121 °C | CN(C)C(C)(O)CC12CCC(c3ccccc31)c1ccccc12 (configuration not stated) |
| 158 to 159 °C | O=C(C1=C(O)C(=O)N(C2CC2)C1)c1ccc(Cc2ccc(F)cc2)o1 |
| 83 to 86 °C | CCOC(=O)CCNC(=O)c1cn2nc(NCCCN3CCC(OC(c4ccccc4)c4ccccc4)CC3)ccc2n1 |
| 167 to 171 °C | O=C(O)c1ccc(O)c(OCc2ccccc2)c1 |
| 173 to 175 °C | CNC(=O)N(O)Cc1cccc(Nc2ccccc2C(=O)OC)c1C |
| 176 to 178 °C | CC(=O)OCc1c(Br)cccc1N1CCc2c(cc3n2CCCC3)C1=O |
| > 210 °C | CC(=O)c1c[nH]c2nccc(-c3ccccc3)c12 |
| 178 to 180 °C | Nc1c(F)c(N2CCC(C(N)c3ccccn3)C2)c(F)c2c1c(=O)c(C(=O)O)cn2C1CC1F (configuration not stated) |
| 85 to 87 °C | COc1ccc(CON(Cc2ccccc2)S(C)(=O)=O)cc1 |
| > 300 °C | Cc1c(C(=O)c2sc(Nc3ccc(N4CCOCC4)cc3)nc2N)ncn1C |
| 175 °C | COc1ccc(CN(C)CCc2ccc(NC(=O)c3cccc4c(=O)c5cccc(F)c5[nH]c34)cc2)cc1OC |
| 161 °C | CC(=O)OC1CSC(Oc2cccnc2-c2ccncc2)C(OC(C)=O)C1OC(C)=O (configuration not stated) |
| 210 to 212 °C | CC(C)(C)Nc1c(NCc2cccc(OC(F)(F)F)c2)c(=O)c1=O |
| 152 to 154 °C | O=C(O)C(CSc1nccs1)CS(=O)(=O)c1ccc(-c2ccc(Cl)cc2)cc1 (configuration not stated) |
| 274 to 276 °C | O=c1[nH]c2cc(Cl)ccc2c(O)c1-c1ccc(Oc2ccccc2)cc1 |
| 97 to 100 °C | Oc1ccccc1Oc1ccc(Cl)cn1 |
| 164 to 165 °C | CCOc1ccccc1-c1ccc2cnc(Nc3ccc(N4CCN(C)CC4)cc3)nn12 |
| 166 to 168 °C | CC(C)(C)OC(=O)N1C(=O)O[C@@H](c2ccncc2)[C@H]1Cc1ccc(C(F)(F)F)cc1 (racemic) |

Further lines, the compound ahead of its results:

| Structure (SMILES) | melting point |
| --- | --- |
| NC(=O)COC(=O)c1c(Cl)ccc(Cl)c1Cl | 158 to 160 °C |
| CCCCc1cnc(NCCCOc2cccc(CN3CCCCC3)c2)[nH]c1=O | 105 to 106 °C |
| CCC1=C(C#N)C(c2cccc(Cl)c2Cl)c2c[nH]nc2N1 (configuration not stated) | > 300 °C |
| CCCCCCCCCCOc1ccc(O)c2ccccc12 | 89 to 90 °C |
| COc1ccc(-c2nc3cccc(C(=O)NC4CN5CCC4CC5)c3o2)cc1 (configuration not stated) | 166 to 167 °C |
| CCOC(COc1cccc2c1OCCO2)OCC | 73.1 °C |
| CCC(Oc1ccc2oc3cc(Cl)ccc3c2c1)C(=O)O (configuration not stated) | 143 to 145 °C |
| O=[N+]([O-])c1ccc(O)cc1OCCO | 167 °C |
| CC1(C)CCC(C)(C)c2cc(O)ccc21 | 142 °C |
| CS(=O)(=O)Nc1cc2c(c(C(=O)O)c1)NCCCC2 | 204 to 205 °C |
| O=C1[C@@H]2CCCN2C(=O)N1c1cc(Cl)cc(Cl)c1 | 169 °C |
| CC(=O)C=Cc1ccc(Cl)cc1Cl | 79 to 80 °C |
| COc1ccc(N2C(=O)CC(Cl)C2=O)cc1 (configuration not stated) | 142 to 143 °C |
| CC(C)C1(C)N=C(c2nc3c(cc2C(=O)O)CCO3)NC1=O (configuration not stated) | 189 to 192 °C |
| Cc1nn(-c2ccc(Cl)cc2)c(=O)[nH]1 | 218 to 219 °C |
| COc1cc2c(cc1OC)C(=O)CS[C@@H](C(=O)O)C2 | 223 to 224 °C |
| CCOC(=O)C(=O)Nc1cccc(C#N)c1 | 149 to 150 °C |
| CC(=O)NN1CCN(CCc2c[nH]c3ccccc23)CC1 | 183 to 186 °C |
| COc1ccc(C2=NN(C3CCN(c4ncnc5sccc45)CC3)C(=O)[C@@H]3CC=CC[C@H]23)cc1OC | 219 to 220 °C |
| CCCCCCCCCCOc1ccc(C(=O)C=O)cc1 | 81 to 83 °C |
| CCc1noc(-c2cc3c(cn2)[nH]c2ccc(N(C)C)cc23)n1 | 235 to 240 °C |
| CSC1(CC(=O)O)CCC1 | 43 to 46 °C |
| O=c1[nH]c(=O)c2nc3ccccc3nc2[nH]1 | 300 °C |

| Structure (SMILES) | melting point |
| --- | --- |
| CC12CC(N3CCOCC3)C(O)CC1CCC1C2CCC2(C)C(C(=O)CCl)CCC12 (configuration not stated) | 181 °C |
| C=C(c1ccc(C(C)C)cc1)c1c(C)c(NC(=O)CC(C)(C)C)c(C)c2c1OCC2 | 188 to 189 °C |
| OCCCCCCCCCCCC(F)(F)C(F)(F)F | 41 to 43 °C |
| Cl/C(=C\c1ccc(Br)cc1)c1ccc(Cl)cc1 | 108 °C |
| CCOC(=O)N1CCC(Nc2nc3ccccc3n2Cc2csc(C)n2)CC1 | 160 °C |
| CCc1cc(=O)c2cc(C(C)C(=O)O)ccc2o1 (configuration not stated) | 128 °C |
| CC(C)(CO)Nc1nc(-c2cccc(C#N)c2)cs1 | 124 to 126 °C |
| CC(C)(C)C(=O)Cn1ccnc1 | 20 °C |
| Cc1onc(-c2cccc(Cl)c2)c1C(=O)O | 171 to 173 °C |
| COc1cccc(NC(=O)OC2CN3CCC2CC3)c1 (configuration not stated) | 130 to 132 °C |
| COc1cccc(CC(O)C2CCNCC2)c1OC (configuration not stated) | 82 to 84 °C |
| COc1cc2ccc([C@](O)(c3c[nH]cn3)C(C)C)cc2cc1OC | 156 to 157 °C |
| CCOC(=O)C(=Cc1ccc(O)cc1)C(=O)CCl | 92 to 95 °C |
| Cc1cc2c(cc1-c1ccc(O)c(C=O)c1)C(C)(C)CCC2(C)C | 138 to 139 °C |
| CC1CN(Cn2cc(C#N)c(-c3cccc(Cl)c3Cl)c2)CC(C)O1 (configuration not stated) | 91 to 97 °C |
| CCOCC1C(C(=O)O)C1(C)C (configuration not stated) | 40 to 40.5 °C |
| CN1CCN(CCc2[nH]c(=O)[nH]c2-c2ccc(F)cc2)CC1 | 237 to 239 °C |
| O=C(O)c1cc(CCCBr)ccc1O | 68 to 73 °C |
| O=C(Nc1cc(C(F)(F)F)on1)C(Cl)(Cl)Cl | 114 °C |
| CC(=O)c1ccc(OCCCCl)c(C)c1 | 41.5 to 42.5 °C |
| CCOC(=O)c1c(Nc2ccc(F)cc2[N+](=O)[O-])nn(C)c1C | 174 °C |
| NC(CSc1ccccc1N)=NO | 80 °C |
